Measured values as given in patent US20070098693A1, “Methods for enhancing engraftment of purified hematopoietic stem cells in allogenic recipients” (priority 2003, published 2007).

Columns and labels:
Assay type in all cases: cell-based, mice
[1] = tested on: CD8^+/TCR^− FC; experiment: Cell death of sorted FC after overnight culture (7AAD staining)
Text: (§1) mAbs and Flow cytometry. The following mAbs (all from BD Biosciences Pharmingen, San Diego, Calif., except those labeled with APC-cy-7 from eBioscience, San Diego, Calif.) were used. To sort CD8^+/TCR^− FC: anti-CD8α (53-6.7) PE-labeled, anti-TCR β chain (H57-597) and anti-TCR γδ chain (GL3) FITC-labeled. To sort B220^+/CD11c^dim/CD11b^− p-preDC: anti-CD11b (M1/70) APC-labeled, anti-CD45R/B220 (RA3-6B2) APC-Cy7-labeled, anti-CD11c (HL3) PE-labeled, and anti-TCR β chain (H57-597), anti-TCR γδ chain (GL3), anti-CD14 (rmC5-3), anti-CD19 (1D3), anti-Pan-NK cells (DX5), and anti-NK1.1 (PK136), all FITC-labeled. To sort HSC: anti-TCR β chain (H57-597), anti-TCR γδ chain (GL3), anti-Ly-6G (Gr-1), anti-CD11b, Mac1 (M1/70), anti-CD8α (53-6.7) and anti-CD45R/B220 (RA3-6B2), all FITC-labeled, anti-Ly-6A/E (Sca-1) (E13-161.7) PE-labeled and anti-c-Kit (CD117) (2B8) APC-labeled. To restain the sorted FC population: purified anti-CD16/CD32 (FcγIII/II receptors) (2.4G2), anti-CD11c (HL3), anti-CD4 (RM4-5) and anti-CD19 (1D3) all APC-labeled, anti-CD45R/B220 (RA3-6B2) PerCP-labeled, and anti-Pan-NK cells (DX5), anti-NK1.1 (PK136), anti-CD14 (rmC5-3), and anti-Ly-6G (Gr-1) FITC-labeled. To analyze the activation state: anti-CD80 (B7-1) ([…]), anti-CD86 (B7-2) ([…]), and anti-I-A^b (Aβ^b) (AF6-120.1) FITC-labeled. For PBL typing and multilineage chimerism: anti-H-2 K^b (AF6-88.5) PE or FITC-labeled, anti-H-2K^k (36-7-5) PE or FITC-labeled, anti-TCR β chain (H57-597), anti-NK1.1 (PK136), anti-Ly-6G (Gr-1), anti-CD11b, Mac1 (M1/70) and anti-CD45R/B220 (RA3-6B2) all FITC-labeled. Detection of dead cells after cell culture was determined by using a 7-Amino-actinomycin D (7-AAD) (Molecular Probes, Eugene, Oreg.) followed by FACS analysis.
(§2) CpG oligodeoxynucleotides (ODN) stimulation. Sorted p-preDC or FC were cultured for 18 hours at 10^5 cells/200 μL in 96 well round-bottom culture plates in culture medium in the presence or absence of Toll-like receptor (TLR)-9 ligand, CPG-ODN 1668 (TCCATGACGTTCCGATGCT) (SEQ ID NO. 1) (GibcoBRL Custom Primers) at 1 μM, TLR-4 ligand, LPS from Escherichia coli (Sigma, MO, USA) at 10 μg/ml, as previously described^30. CpG or LPS-treated or untreated cells were subsequently assayed for: 1) the expression of DC activation/maturation cell surface markers by FACS, 2) their survival rate by 7AAD staining, or 3) morphological appearance by Wright Giemsa staining on cytospins. The supernatant of these cultures were collected for analysis of the production of different cytokines by ELISA.

[2] = tested on: B220^+/CD11c^dim/CD11b^− p-preDC; experiment: Activation marker expression on sorted p-preDC after 18 h culture (FACS)
Text: as §1, §2

[3] = tested on: B220^+/CD11c^dim/CD11b^− p-preDC; experiment: Cell death of sorted p-preDC after overnight culture (7AAD staining)
Text: as §1
CpG oligodeoxynucleotides (ODN) stimulation. […]

[4] = tested on: CD8^+/TCR^− FC; experiment: CpG ODN / LPS stimulation of sorted FC, cytokine production by ELISA / multiplex
Method: as §2
Cytokine production by ELISA. Briefly, the cell-free supernatants of 12H, 18H, or 24H cultured cells (FC or p-preDC,) with or without CpG ODN or LPS were collected and kept frozen at −80° C. The amount of cytokine produced was determined by 1) ELISA kits for mouse IFN-α (R&D system) and mouse TNF-α (Biosource International), and 2). Multiplex for MIP 1αCCL3), GM-CSF, MCP-1 (CCL2), RANTES (CCL5), IFN-γ, IL-1β, IL-2, IL-4, IL-5, IL-6, IL-10, IL-12p70, IL-9, and IL13 on 18 hour incubation supernatants from three different experiments performed by Linco Diagnostic Services (St. Charles, Mo.).

[5] = tested on: CD8^+/TCR^− FC; experiment: Activation marker expression on sorted FC after 18 h culture (FACS)
Text: as §1, §2

[6] = fresh FC, overnight culture with CpG
[7] = FL-derived p-preDC, CpG ODN exposure overnight
[8] = fresh BM p-preDC, overnight exposure to CpG ODN, n=2
[9] = CpG ODN stimulation, 18 hours, multiplex
[10] = FL-derived FC and FL-derived p-preDC (FIG. 4c), CpG-ODN overnight
[11] = after culture with medium or CpG stimulation
[12] = FL-derived FC, CpG ODN exposure overnight
[13] = fresh BM FC, overnight exposure to CpG ODN, n=4

CpG ODN: Toll-like receptor (TLR)-9 ligand, CPG-ODN 1668 (TCCATGACGTTCCGATGCT) (SEQ ID NO. 1) (DNA, backbone and methylation of C not given here)
decrease of mortality of FL-treated FC ([1]; FL-derived FC, CpG ODN overnight versus medium): 10-15%
decrease of FC mortality compared to media alone [1, 6]: 10%
mortality of FC (dead cells) [1, 6]: 43.5±3.5%
CD80 expression on FL-derived p-preDC after CpG ODN [2, 7]: 63%
CD86 expression on FL-derived p-preDC after CpG ODN [2, 7]: 87%
Class II expression on FL-derived p-preDC after CpG ODN [2, 7]: 88%
CD80 expression on p-preDC [2, 8]: 12.5±1%
CD86 expression on p-preDC [2, 8]: 85±13%
Class II expression on p-preDC [2, 8]: 39±4%
rescue of FL-derived p-preDC from death ([3]; CpG exposure (data not shown)): partially rescued
mortality of p-preDC (dead) ([3]; fresh p-preDC, overnight culture with CpG): 35±0.3%
IL-6 production by FC [4, 9]: moderate amounts
IL-12p70 production by FC [4, 9]: low levels
Mip1-α/CCL3 production by FC [4, 9]: high amounts
RANTES/CCL5 production by FC [4, 9]: moderate amounts
TNF-α production by FC ([4]; CpG ODN stimulation, 24 hours, ELISA): large amounts
IFN-α secretion of FL-derived cells after CpG-ODN [4, 10]: increased further
IL-12p70 production of FL-derived cells after CpG-ODN [4, 10]: increased further
TNF-α production of FL-derived cells after CpG-ODN [4, 10]: increased further
GM-CSF production by FC [4, 11]: no
IFN-γ production by FC [4, 11]: low amounts
IL9 production by FC [4, 11]: low amounts
IL-1β production by FC [4, 11]: no
IL-2 production by FC [4, 11]: no
IL-4 production by FC [4, 11]: no
IL-5 production by FC [4, 11]: no
IL-10 production by FC [4, 11]: low amounts
IL-13 production by FC [4, 11]: no
MCP-1/CCL2 production by FC [4, 11]: low amounts
IFN-α production by FC ([4]; sorted bone marrow FC cultured with stimulus, ELISA): levels similar to those produced by p-preDC
CD80 expression on FL-derived FC after CpG ODN [5, 12]: 48%
CD86 expression on FL-derived FC after CpG ODN [5, 12]: 77%
Class II expression on FL-derived FC after CpG ODN [5, 12]: 73%
CD80 expression on FC [5, 13]: 23.5±8%
CD86 expression on FC [5, 13]: 86±12%
Class II expression on FC [5, 13]: 74±6.5%
